“Also recorded” adds a separate entry of the source.
Columns and labels:
[1] = target: T1, 3 × FLAG-tagged HOIP RBR domain in HEK293T cells (Homo sapiens, UniProt Q96EP0); assay: In-cell labeling, FLAG-IP, tryptic digest and LC-MS/MS; type: cell-based; details: 30 μM, 8 h
T1 construct: expressed in transfected cells; host or cells: HEK293T, transient, modified pcDNA3.1(+)
Procedure: Transfection and compound treatment
At approximately 40% confluency, as judged by visual inspection by microscope, cells were transfected by mixing Optimem (Gibco) with the relevant pcDNA3.1 construct (3 µg; 3×FLAG HOIP RBR, 3×FLAG HOIP RBR C885A or mock) and FuGENE transfection reagent (9 µL, vortexed prior to use; Promega) respectively. The solutions were mixed thoroughly and incubated at room temperature for 15 min, then added dropwise and the media was swirled gently to ensure homogenous mixing. The cells were incubated at 37 °C (Binder) for 48 h. Fresh DMEM media supplemented with 1% v/v FBS (Biosera) and 1% v/v L-glutamine/penicillin/streptomycin (Sigma-Aldrich) was aliquoted into 15 mL Falcon tubes (typically 8 mL/tube). […]
The lysates were clarified by centrifugation (Heraeus Fresco 17) at 17 000 × g, 4 °C for 20 min and the pellet discarded. The protein concentration was determined using the BCA assay (see […]
The protein concentrations of the clarified lysates were normalized with reaction buffer (50 mM Tris-HCl, pH 7.5, 1.5 mM MgCl2, 150 mM NaCl, 1 mM Na3VO4, complete protease inhibitor) to 1.0 mg/mL (final volume 400 µL, and <0.1% IGEPAL-CA630). […] One set of beads were denatured in 2× LDS loading buffer and analyzed by SDS PAGE and Western blot (FLAG antibody, Supplementary Figure S12) as described in […]

HOIP RBR domain = target: T2, HOIP RBR domain (Homo sapiens, UniProt Q96EP0); assay: In vitro polyubiquitination assay; type: biochemical; details: HOIP RBR preincubated with compound (200 μM) overnight; E2 UbcH7 or UbcH5c; vs DMSO
T2 construct: made in house; host or cells: E. coli BL21-GOLD(DE3)
T2 sequence (Q96EP0 697-1072): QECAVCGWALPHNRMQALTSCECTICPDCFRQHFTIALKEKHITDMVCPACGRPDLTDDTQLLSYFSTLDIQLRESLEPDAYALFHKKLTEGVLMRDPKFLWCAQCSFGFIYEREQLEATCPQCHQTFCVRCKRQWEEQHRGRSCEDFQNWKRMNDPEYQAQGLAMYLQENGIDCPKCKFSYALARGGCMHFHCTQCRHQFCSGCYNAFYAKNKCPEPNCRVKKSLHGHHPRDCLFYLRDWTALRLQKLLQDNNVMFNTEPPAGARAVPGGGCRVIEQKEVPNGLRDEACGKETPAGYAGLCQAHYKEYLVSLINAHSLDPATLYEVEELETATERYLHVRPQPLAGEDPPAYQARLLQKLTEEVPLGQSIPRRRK
Procedure: 4.3 Polyubiquitination assay
The ubiquitination assay was essentially carried out as previously described.12 The HOIP RBR domain was pre-incubated with compounds (5) or (6), or DMSO in 50 mM HEPES, 150 mM NaCl, pH 7.5 buffer at 23 °C with gentle shaking for overnight (20-24 h). E1, E2 (UbcH7 or UbcH5c), ubiquitin, and MgCl2 were added to each vial, and aliquots of 15 µL were withdrawn to mark time zero. ATP was then added and aliquots of 15 µL were withdrawn after 5, 15, 30, and 60 min incubation. Final concentrations: E1 (1 µM), E2 (5 µM), E3 (5 µM), compounds (200 µM), DMSO (1%), ubiquitin (40 µM), MgCl2 (20 mM), ATP (10 mM); reaction volume 100 µL. The aliquots were analyzed by SDS PAGE (Figure 4A and Supplementary Figure S9) as described below (section

Row | Structure (SMILES) | in-cell labeling of HOIP RBR at C885 [1] | polyubiquitin chain formation (HOIP RBR domain)
1 | COC(=O)/C=C/CNC(=O)c1cc2c([nH]c1=O)CCCC2 [Compound 11a] | significantly labeled; also recorded: significant labeling | 
2 | COC(=O)/C=C/CNC(=O)c1cc2c([nH]c1=O)CCC2 [Compound 5] |  | fully abolished chain formation; also recorded: complete inhibition of polyubiquitin chain formation
